Test results taken from patent US8178506B2, “Oligomeric compounds and compositions for use in modulation of small non-coding RNAs” (Regulus Therapeutics Inc., priority 2003, dated 2012).
In the oligonucleotide strings, read from the 5' end, every base follows the letter of its sugar. An asterisk marks phosphorothioate; unmarked linkages are phosphodiester. Other units and linkages are bracketed, terminal groups are in braces. A string of capitals states the bases alone. e = 2'-O-(2-methoxyethyl) (MOE); [5mC] = 5-methylcytosine; d = 2'-deoxy (DNA)

Assays:
Assay type in all cases: cell-based, human
adipocytes = assay: Triglyceride accumulation assay in adipocytes
aP2 = aP2 mRNA expression in adipocytes (real-time PCR); conditions: for aP2 mRNA: Table 75
Glut4 = Glut4 mRNA expression in adipocytes (real-time PCR)
HSL = HSL mRNA expression in adipocytes (real-time PCR)
PPARγ = PPARγ mRNA expression in adipocytes (real-time PCR)
[1] = Table 20, adipocyte differentiation assay as in Example 13
[2] = Table 17, differentiating adipocytes, control = treatment with ISIS 342673
[3] = differentiating adipocytes transfected with oligomeric compound, Table 75
[4] = differentiating adipocytes transfected with oligomeric compound
[5] = Table 18, differentiating adipocytes, control = treatment with ISIS 342673

Substance	TG (triglyceride accumulation) (adipocytes; [2])	TG (triglyceride accumulation) (adipocytes; [3])	AP2 mRNA (aP2; [2])	aP2 mRNA (aP2; [4])	GLUT4 mRNA (Glut4; [2])	GLUT4 mRNA (Glut4; [3])	HSL mRNA (HSL; [2])	HSL mRNA (HSL; [3])	PPAR gamma mRNA (PPARγ; [2])	PPAR gamma mRNA (PPARγ; [3])	TG (triglyceride accumulation) (adipocytes; [5])	AP2 mRNA (aP2; [5])	GLUT4 mRNA (Glut4; [5])	HSL mRNA (HSL; [5])	PPAR gamma mRNA (PPARγ; [5])	TG (triglyceride accumulation) (adipocytes; [4])	AP2 mRNA (aP2; [4])	GLUT4 mRNA (Glut4; [4])	HSL mRNA (HSL; [4])	PPAR gamma mRNA (PPARγ; [4])	further results
338664 (antisense e[5mC]*eA*eG*eA*e[5mC]*eT*e[5mC]*e[5mC]*e[5mC]*eA*eA*e[5mC]*eT*eG*eA*e[5mC]*e[5mC]*eA*eG*eA) [compound 338664]																					TG (adipocytes; [1]): 1.42; AP2 (aP2; [1]): 1.01; Glut4 (Glut4; [1]): 1.81; HSL (HSL; [1]): 0.76; PPAR gamma (PPARγ; [1]): 0.86
328138 (eG*eA*eG*e[5mC]*eT*eG*e[5mC]*eT*e[5mC]*eA*eG*e[5mC]*eT*eG*eG*e[5mC]*e[5mC]*eA*eT*e[5mC]*eA; anti-miR) [compound 328138]	100.6 percentage of control	80 percentage of untreated control (UTC)	85.3 percentage of control	52 percentage of untreated control (UTC)	86.8 percentage of control	52 percentage of untreated control (UTC)	89.8 percentage of control	56 percentage of untreated control (UTC)	83.8 percentage of control	63 percentage of untreated control (UTC)											
341805 (antisense ACCCTTATCAGTTCTCCGTCCA; all 2'-MOE, all phosphorothioate, methylation of C not given here) [compound 341805]				90 percentage of untreated control (UTC)		74 percentage of untreated control (UTC)		86 percentage of untreated control (UTC)		77 percentage of untreated control (UTC)	78.1 percentage of control	81.9 percentage of control	88.2 percentage of control	81.8 percentage of control	80.4 percentage of control						
328136 (eA*eA*e[5mC]*eT*eA*e[5mC]*eT*eT*e[5mC]*e[5mC]*eA*eG*eA*eG*e[5mC]*eA*eG*eG*eT*eG*eA; anti-miR) [compound 328136]	47.0 percentage of control	26 percentage of untreated control (UTC)	73.0 percentage of control	57 percentage of untreated control (UTC)	66.7 percentage of control	35 percentage of untreated control (UTC)	65.0 percentage of control	37 percentage of untreated control (UTC)	72.7 percentage of control	54 percentage of untreated control (UTC)											
341803 (antisense CCACACACTTCCTTACATTCCA; all 2'-MOE, all phosphorothioate, methylation of C not given here) [compound 341803]				85 percentage of untreated control (UTC)		73 percentage of untreated control (UTC)		79 percentage of untreated control (UTC)		68 percentage of untreated control (UTC)	85.9 percentage of control	77.3 percentage of control	86.8 percentage of control	75.5 percentage of control	71.2 percentage of control						
328129 (antisense eA*eG*e[5mC]*e[5mC]*eT*e[5mC]*e[5mC]*eT*eT*e[5mC]*eT*eT*e[5mC]*eT*e[5mC]*eG*eT*eA*e[5mC]*eT*eA) [compound 328129]	53.8 percentage of control	19 percentage of untreated control (UTC)	67.6 percentage of control	54 percentage of untreated control (UTC)	60.0 percentage of control	36 percentage of untreated control (UTC)	56.5 percentage of control	34 percentage of untreated control (UTC)	71.8 percentage of control	59 percentage of untreated control (UTC)											
328691 (e[5mC]*e[5mC]*e[5mC]*e[5mC]*eA*dT*d[5mC]*dT*dT*dA*dG*d[5mC]*dA*dT*d[5mC]*eT*eA*eA*eG*eG) [compound 328691]																130 percentage of untreated control (UTC)	166 percentage of untreated control (UTC)	144 percentage of untreated control (UTC)	156 percentage of untreated control (UTC)	105 percentage of untreated control (UTC)	
327912 (antisense eA*eA*e[5mC]*eT*eA*eT*eA*e[5mC]*eA*eA*eT*e[5mC]*eT*eA*e[5mC]*eT*eA*e[5mC]*e[5mC]*eT*e[5mC]*eA) [compound 327912]		112 percentage of untreated control (UTC)		101 percentage of untreated control (UTC)		79 percentage of untreated control (UTC)		95 percentage of untreated control (UTC)		78 percentage of untreated control (UTC)	107.4 percentage of control	90.1 percentage of control	89.0 percentage of control	90.6 percentage of control	76.9 percentage of control						
328125 (antisense eT*eA*eT*eG*eA*eA*eA*eT*eG*e[5mC]*e[5mC]*eA*eG*eA*eG*e[5mC]*eT*eG*e[5mC]*e[5mC]*eA) [compound 328125]	81.7 percentage of control	44 percentage of untreated control (UTC)	86.9 percentage of control	75 percentage of untreated control (UTC)	99.5 percentage of control	65 percentage of untreated control (UTC)	75.8 percentage of control	48 percentage of untreated control (UTC)	76.1 percentage of control	68 percentage of untreated control (UTC)											
340350 (antisense TGCTCAATAAATACCCGTTGAA; all 2'-MOE, all phosphorothioate, methylation of C not given here) [compound 340350]		38 percentage of untreated control (UTC)		64 percentage of untreated control (UTC)		53 percentage of untreated control (UTC)		45 percentage of untreated control (UTC)		59 percentage of untreated control (UTC)											
328685 (e[5mC]*eG*eG*e[5mC]*e[5mC]*dG*dG*dA*dG*d[5mC]*d[5mC]*dA*dT*dA*dG*eA*e[5mC]*eT*e[5mC]*eG; antisense) [compound 328685]																50 percentage of untreated control (UTC)	73 percentage of untreated control (UTC)	69 percentage of untreated control (UTC)	100 percentage of untreated control (UTC)	91 percentage of untreated control (UTC)	
328114 (antisense eA*eA*eT*e[5mC]*eT*e[5mC]*eA*eT*eT*eT*eT*e[5mC]*eA*eT*eA*e[5mC]*eT*eT*eG*e[5mC]*eA) [compound 328114]											117.3 percentage of control	94.4 percentage of control	114.9 percentage of control	93.3 percentage of control	89.3 percentage of control	110 percentage of untreated control (UTC)	123 percentage of untreated control (UTC)	116 percentage of untreated control (UTC)	134 percentage of untreated control (UTC)	106 percentage of untreated control (UTC)	
328362 (eT*eG*eT*eG*eT*dT*dT*dT*d[5mC]*dT*dG*dA*d[5mC]*dT*d[5mC]*eA*eG*eT*e[5mC]*eA) [compound 328362]																73 percentage of untreated control (UTC)	59 percentage of untreated control (UTC)	80 percentage of untreated control (UTC)	83 percentage of untreated control (UTC)	78 percentage of untreated control (UTC)	
